# Test results as given in patent US20040029153A1, “Method for estimating metabolic function of xenobiotic and induction thereof” (priority 2000, published 2004).
# Like-named read-outs stand apart in the source and are kept apart here.
# How the values were obtained:
# CYP1A = experiment: Induction of ethoxyresorfin dealkylation activity in primary human hepatocytes; format: in vitro ADME; details: HH-110
# Description: After the culture medium was completely removed from the culture plate, Lanford's medium (1 mL) containing 8 μmol/L of 7-ethoxyresorfin and 10 μmol/L of dicumarol was added to each well, and the plate was incubated for 30 minutes in the CO2 incubator to allow reaction. Whole volume of each reaction was recovered and stored at −80° C. until measurement. The cells were washed twice with Lanford's medium, and maintained in the CO2 incubator again or directly used as a sample for another test.
# The stored reactions were thawed, and accurately 75 μL of each reaction was removed and mixed with 0.1 mol/L of acetate-sodium acetate buffer (pH 4.4, 25 μL) containing 15 Fishman units of β-glucuronidase [EC 3.2.1.31] and 120 Roy units of sulfatase [EC 3.1.6.1], followed by conjugation reaction for two hours at 37° C. Ethanol (200 μL) was added to the reaction and subjected to centrifugation. The supernatant (200 μL) was transferred to a 96-well microtiter plate. Microplate reader (Labsystems, Fluoroscan Ascent) was used to measure the fluorescence intensity at the wavelength of 590 nm when excited with excitation light at the wavelength of 544 nm. The resorfin production figured out from the result was used to measure the ethoxyresorfin dealkylation activity.
# The cells maintained under the conditions considered optimal in Examples 8 and 9 were continued to be added with 1 μmol/L of 3-methylcholanthrene for three days, and the changes in ethoxyresorfin dealkylation activity was investigated. HH-110 cells were used.
# Primary human hepatocytes (HH-110) were continued to be loaded with 1 μmol/L of 3-methylcholanthrene for three days between days 4th to 7th post seeding (indicated by a crossbar in the figure), and these cells had been maintained further for five days again in the conventional Lanford's medium. During this period, measurement of ethoxyresorfin dealkylation activity was conducted at 8 times to investigate the changes in the activity. Three samples per condition were measured independently, and the mean values are shown. The standard deviations are indicated by error bar. […]
# [1] = system: primary human hepatocytes; experiment: Ethoxycoumarin dealkylation and coumarin conjugation activities in primary human hepatocytes; format: in vitro ADME; details: HH-110 and HH-118; benz[a]anthracene 5 μmol/L, 3-methylcholanthrene 2 μmol/L; one day and night
# Description: Lanford's medium (1 mL) containing 75 μmol/L of 7-ethoxycoumarin was added to each well after the culture medium was removed, and the plate was incubated for two hours in the CO2 incubator to allow reaction. Whole volume of each reaction was recovered and stored at −80° C. until measurement. The cells were washed twice with Lanford's medium, and maintained in the CO2 incubator again or directly used as a sample for another test. The stored reactions were thawed, and 50 μl of the reaction was analyzed by liquid chromatography, ethoxycoumarin dealkylation activity and glucuronate and sulfate conjugation activities were comprehensively estimated based on the production of 7-hydroxycoumarin, 7-hydroxycoumarin glucuronide and 7-hydroxycoumarin sulfate. Herein, 7-ethoxycoumarin is converted to 7-hydroxycoumarin after dealkylation, and then conjugated by glucuronate and sulfate.
# The cells maintained under the conditions considered optimal in Examples 8 and 9 were continued to be added with 5 μmol/L of benz[a]anthracene or 2 μmol/L of 3-methylcholanthrene one day and night, and then the changes in ethoxycoumarin dealkylation activity was investigated. HH-110 and HH-118 cells were used.
# Three samples per each condition i.e., control (Lane 1), adding of 3-methylcholanthrene (Lane 2) and benz[a]anthracene (Lane 3) which were measured independently, and the mean values are shown. […]
# CYP1A1/2 = experiment: Western blotting of CYP1A protein in cryopreserved primary human hepatocytes; details: HH-110 and HH-118; 3-methylcholanthrene 2 μmol/L, benz[a]anthracene 5 μmol/L; one day and night; vs control
# CYP3A mRNA = details: hepatocytes
# CYP3A = experiment: Induction of testosterone hydroxylation activity in primary human hepatocytes
# [2] = system: primary human hepatocytes; experiment: Effect of culture medium components on rifampicin induction of testosterone hydroxylation activity; format: cell-based
# CYP3A4 = system: CYP3A4
# Description: The cells in the suspension were seeded in a 12-well culture plate coated with collagen at the density of 6×10^5 cells/well, and the plate was incubated one day and night in the CO2 incubator. Subsequently, the culture medium containing 10% fetal bovine serum was removed, 1 ml of fresh serum-free Lanford's medium was added to each well, and the cells were maintained in the CO2 incubator. The inside of the CO2 incubator used in the present invention was maintained at 37° C. in an atmosphere of 5% […] saturated with vapor.
# 10 μl of the sample was electrophoresed on polyacrylamide gel, and blotted onto PVDF transfer membrane.
molecule,measurement,setting,value
Cc1ccc2cc3c(ccc4ccccc43)c3c2c1CC3 [3-methylcholanthrene],ethoxyresorfin dealkylation activity during continued addition,"CYP1A; 1 μmol/L, added for three days",gradually decreased
same,time of maximum ethoxyresorfin dealkylation activity,"CYP1A; 1 μmol/L, added for three days",one day after 3-methylcholanthrene was added
same,ethoxyresorfin dealkylation activity after addition was stopped,CYP1A; after three days of 1 μmol/L,returned to their original state prior to the addition of the compounds in a day
same,"production of 7-hydroxycoumarin, 7-hydroxycoumarin glucronide and 7-hydroxycoumarin sulfate",[1],increases
same,CYP1A1/2 expression (western blotting),CYP1A1/2,increased
c1ccc2cc3c(ccc4ccccc43)cc2c1 [benz[a]anthracene],"production of 7-hydroxycoumarin, 7-hydroxycoumarin glucronide and 7-hydroxycoumarin sulfate",[1],increases
same,CYP1A1/2 expression (western blotting),CYP1A1/2,increased
Clc1ccccc1C(c1ccccc1)(c1ccccc1)n1ccnc1 [clotrimazole],"CYP3A mRNA level, concentration-dependence of induction",CYP3A mRNA,increase of the mRNA level was observed
same,"testosterone hydroxylation activity, concentration-dependence of induction","CYP3A; HH-110, different concentrations",increase of the testosterone hydroxylation activity was not observed
C[C@]12CCC(=O)C=C1CC[C@@H]1[C@@H]2[C@@H](O)C[C@@]2(C)[C@H]1CC[C@]2(O)C(=O)CO [hydrocortisone],effect of medium component on maintenance of testosterone hydroxylation activity,"[2]; HH-110, hydrocortisone-free vs conventional Landford's medium",essential
CCC1(c2ccccc2)C(=O)NC(=O)NC1=O [phenobarbital],CYP 3A mRNA (CYP3A/β-actin),CYP3A mRNA,Increases
same,day of maximum testosterone hydroxylation activity after addition,"CYP3A; HH-110, rifampicin 10 μmol/L, phenobarbital 1 mmol/L, loaded for four days",4 days
same,testosterone hydroxylation activity,"CYP3A; five donors (HH-018, HH-022, HH-029, HH-110, HH-118), rifampicin 10 μmol/L, phenobarbital 1 mmol/L, four days",Increases
same,CYP3A4 expression (western blotting),CYP3A4,not marked
C[C@]12C=CC(=O)C=C1CC[C@@H]1[C@@H]2[C@@H](O)C[C@@]2(C)[C@H]1CC[C@]2(O)C(=O)CO [predonisolone],induction of testosterone hydroxylation activity with glucocorticoid instead of hydrocortisone in medium,"[2]; HH-110, 1 μmol/L in medium, rifampicin 10 μmol/L for three days",can be observed
cholera toxin,effect of medium component on induction of testosterone hydroxylation activity,[2],enhancing factors
"Prolactin: component of Landford's medium (protein, UniProt P01239 31-229, looked up) Prolactin: TPVCPNGPGNCQVSLRDLFDRAVMVSHYIHDLSSEMFNEFDKRYAQGKGFITMALNSCHTSSLPTPEDKEQAQQTHHEVLMSLILGLLRSWNDPLYHLVTEVRGMKGAPDAILSRAIEIEEENKRLLEGMEMIFGQVIPGAKETEPYPVWSGLPSLQTKDEDARYSAFYNLLHCLRRDSSKIDTYLKLLNCRIIYNNNC",effect of medium component on induction of testosterone hydroxylation activity,"[2]; HH-110, component-free vs conventional Landford's medium, induction by rifampicin",enhancing factors
